Literature values, collected in patent US11419848B2, “Combination of unsaponifiable lipids combined with polyphenols and/or catechins for the protection, treatment and repair of cartilage in joints of humans and animals” (NUTRAMAX LABORATORIES, INC., priority 2004, dated 2022).

Legend:
[1] = identified in ethanolic extract of cactus
[2] = test system: chronic inflammation model; details: administered topically and in a chronic inflammation model, mouse
carrageenan paw oedema = details: rats, extracts of Verbena officinalis
[3] = test system: IL-1 induced expression of nitric oxide synthase and nitric oxide production

Compound	anti-inflammatory activity [1]	anti-inflammatory activity [2]	anti-inflammatory activity (carrageenan paw oedema)	IL-1 induced expression of nitric oxide synthase and nitric oxide production [3]	activation of nuclear factor-kB [3]
CC[C@H](CC[C@@H](C)[C@H]1CC[C@H]2[C@@H]3CC=C4C[C@@H](O)CC[C@]4(C)[C@H]3CC[C@]12C)C(C)C [beta sitosterol]	anti-inflammatory activity	potent anti-inflammatory agents	one of the potent anti-inflammatory agents		
CC[C@H](/C=C/[C@@H](C)[C@H]1CC[C@H]2[C@@H]3CC=C4C[C@@H](O)CC[C@]4(C)[C@H]3CC[C@]12C)C(C)C [stigmasterol]		potent anti-inflammatory agents			
O=C(O[C@@H]1Cc2c(O)cc(O)cc2O[C@@H]1c1cc(O)c(O)c(O)c1)c1cc(O)c(O)c(O)c1 [EGCG, epigallocatechin gallate]				inhibits	suppresses
